Measured values: patent US9540385B2, “Pyrrolopyrimidine compounds as kinase inhibitors” (Pharmacyclics LLC, priority 2012, dated 2017)

Target: T1, BTK (Homo sapiens, UniProt Q06187)
T1 construct: purified from insect cells as a full-length construct containing a N-terminal 6×-His tag; His6 (N); made in house; host or cells: insect cells (baculovirus, Sf21)
Assay: Btk in vitro inhibitory activity / inhibition of a panel of kinases (TR-FRET, mobility shift or radiometric filter binding)
Assay type: biochemical
Conditions: kinase assay by one of methods A, B or C
Description: Btk kinase activity is determined using a time-resolved fluorescence resonance energy transfer (TR-FRET) methodology. Measurements are performed in a reaction volume of 50 μL using 96-well assay plates. Kinase enzyme, inhibitor, ATP (at the Km for the kinase), and 1 μM peptide substrate (Biotin-AVLESEEELYSSARQ-NH2) are incubated in a reaction buffer composed of 20 mM Tris, 50 mM NaCl, MgCl2 (5-25 mM depending on the kinase), MnCl2 (0-10 mM), 1 mM DTT, 0.1 mM EDTA, 0.01% bovine serum albumin, 0.005% Tween-20, and 10% DMSO at pH 7.4 for one hour. The reaction is quenched by the addition of 1.2 equivalents of EDTA (relative to divalent cation) in 25 μL of 1× Lance buffer (Perkin-Elmer). Streptavidin-APC (Perkin-Elmer) and Eu-labeled p-Tyr100 antibody (Perkin-Elmer) in 1× Lance buffer are added in a 25 μL volume to give final concentrations of 100 nM and 2.5 nM, respectively, and the mixture is allowed to incubate for one hour. The TR-FRET signal is measured on a multimode plate reader with an excitation wavelength (λEx) of 330 nm and detection wavelengths (λEm) of 615 and 665 nm. Activity is determined by the ratio of the fluorescence at 665 nm to that at 615 nm. For each compound, enzyme activity is measured at various concentrations of compound. Negative control reactions are performed in the absence of inhibitor in replicates of six, and two no-enzyme controls are used to determine baseline fluorescence levels. Inhibition constants, Ki(app), ware obtained using the program BatchKi (Kuzmic et al. (2000), Anal. Biochem. 286:45-50). IC50s are obtained according to the equation: IC50={Ki(app)/(1+[ATP]/Km^ATP)}+[E]total/2;
For all kinases, [ATP]=Km^ATP, [Btk]total=0.5 nM and [Lck]total=6 nM.
Kinase activity is measured in vitro using electrophoretic mobility shift assay. The kinase reactions are assembled in a total volume of 25 μL in 384 well plates. The reactions comprise: BTK enzyme (1 nM, N-terminal His6-tagged, recombinant, full-length, human BTK purified from baculovirus Sf21 insect cell system), inhibitor, ATP ([…] the apparent Km for the kinase), fluorescently labeled peptide substrate (1 μM, FAM-GEEPLYWSFPAKKK-NH2) in a reaction buffer composed of 100 mM HEPES, pH7.5, 5 mM MgCl2 1 mM DTT, 0.1% bovine serum albumin, 0.01% Triton X-100, and 1% DMSO. The reaction is incubated for one hour and is quenched by the addition of 45 μL of termination buffer (100 mM HEPES, pH7.5, 0.01% Triton X-100, 30 mM EDTA). The terminated reactions are analyzed using 12 channel LabChip® 3000 microfluidic detection instrument (Caliper Life Sciences). The enzymatic phosphorylation of the peptide results in a change in net charge, enabling electrophoretic separation of product from substrate peptide. As substrate and product peptides are separated, two peaks of fluorescence are observed. Change in the relative fluorescence intensity of the substrate and product peaks is the parameter measured, reflecting enzyme activity. In the presence of an inhibitor, the ratio between product and substrate is altered: the signal of the product decreases, while the signal of the substrate increases.
Activity in each sample is determined as the product to sum ratio (PSR):P/(S+P), where P is the peak height of the product peptide and S is the peak height of the substrate peptide. For each compound, enzyme activity is measured at various concentrations (12 concentrations of compound spaced by 3× dilution intervals). Negative control samples (0%-inhibition in the absence of inhibitor) and positive control samples (100%-inhibition, in the presence of 20 mM EDTA) are assembled in replicates of four and are used to calculate %-inhibition values for each inhibitor at each concentration. Percent inhibition (Pinh) is determined using following equation: […]

T1 sequence (Q06187 whole entry): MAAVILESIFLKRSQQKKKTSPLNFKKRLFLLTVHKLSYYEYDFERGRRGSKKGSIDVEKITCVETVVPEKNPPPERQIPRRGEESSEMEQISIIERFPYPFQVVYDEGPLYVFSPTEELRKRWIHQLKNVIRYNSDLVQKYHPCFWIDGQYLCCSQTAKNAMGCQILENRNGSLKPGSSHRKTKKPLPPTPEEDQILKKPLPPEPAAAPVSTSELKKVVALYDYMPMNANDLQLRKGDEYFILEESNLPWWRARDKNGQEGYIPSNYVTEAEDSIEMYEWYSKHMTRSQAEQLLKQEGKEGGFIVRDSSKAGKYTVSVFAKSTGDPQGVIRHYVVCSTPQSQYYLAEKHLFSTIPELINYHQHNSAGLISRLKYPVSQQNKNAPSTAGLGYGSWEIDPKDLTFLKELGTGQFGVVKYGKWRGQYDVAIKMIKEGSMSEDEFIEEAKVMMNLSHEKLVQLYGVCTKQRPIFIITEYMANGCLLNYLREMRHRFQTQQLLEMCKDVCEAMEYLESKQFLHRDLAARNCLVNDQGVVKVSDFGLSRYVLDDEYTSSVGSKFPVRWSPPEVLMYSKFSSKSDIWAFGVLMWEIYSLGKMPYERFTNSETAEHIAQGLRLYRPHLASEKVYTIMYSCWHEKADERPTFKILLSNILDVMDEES

| SMILES | IC50 [µM] |
| --- | --- |
| COCCN(C/C=C/C(=O)N1CC[C@@H](n2c(C)c(-c3ccc(Oc4ccccc4)cc3)c3c(N)ncnc32)C1)CCOC [Compound 79, (R,E)-1-(3-(4-amino-6-methyl-5-(4-phenoxyphenyl)-7H-pyrrolo[2,3-d]pyrimidin-7-yl)pyrrolidin-1-yl)-4-(bis(2-methoxyethyl)amino)but-2-en-1-one] | < 0.1 |
| C#Cc1c(-c2ccc(Oc3ccccc3)cc2)c2c(N)ncnc2n1[C@@H]1CCN(C(=O)/C=C/CN(C)C2CC2)C1 [Compound 112, (R,E)-1-(3-(4-amino-6-ethynyl-5-(4-phenoxyphenyl)-7H-pyrrolo[2,3-d]pyrimidin-7-yl)pyrrolidin-1-yl)-4-(cyclopropyl(methyl)amino)but-2-en-1-one] | < 0.1 |
| Cc1c(-c2ccc(Oc3ccccc3)cc2)c2c(N)ncnc2n1[C@@H]1CCN(C(=O)/C=C/CN(C)[C@H]2CCOC2)C1 [Compound 129, (E)-1-((R)-3-(4-amino-6-methyl-5-(4-phenoxyphenyl)-7H-pyrrolo[2,3-d]pyrimidin-7-yl)pyrrolidin-1-yl)-4-(methyl((S)-tetrahydrofuran-3-yl)amino)but-2-en-1-one] | < 0.1 |
| Cc1c(-c2ccc(Oc3ccccc3)cc2)c2c(N)ncnc2n1[C@@H]1CCN(C(=O)/C=C/CN(C)[C@@H]2CCOC2)C1 [Compound 130, (E)-1-((R)-3-(4-amino-6-methyl-5-(4-phenoxyphenyl)-7H-pyrrolo[2,3-d]pyrimidin-7-yl)pyrrolidin-1-yl)-4-(methyl((R)-tetrahydrofuran-3-yl)amino)but-2-en-1-one] | < 0.1 |
| COCCN(C/C=C/C(=O)N1CC[C@@H](n2c(C#N)c(-c3ccc(Oc4ccccc4)cc3)c3c(N)ncnc32)C1)CCOC [Compound 105, (R,E)-4-amino-7-(1-(4-(bis(2-methoxyethyl)amino)but-2-enoyl)pyrrolidin-3-yl)-5-(4-phenoxyphenyl)-7H-pyrrolo[2,3-d]pyrimidine-6-carbonitrile] | < 0.1 |
| CN(C/C=C/C(=O)N1CC[C@@H](n2c(C#N)c(-c3ccc(Oc4ccccc4)cc3)c3c(N)ncnc32)C1)C1CC1 [Compound 103, (R,E)-4-amino-7-(1-(4-(cyclopropyl(methyl)amino)but-2-enoyl)pyrrolidin-3-yl)-5-(4-phenoxyphenyl)-7H-pyrrolo[2,3-d]pyrimidine-6-carbonitrile] | < 0.1 |
| Cc1c(-c2ccc(Oc3ccccc3)cc2)c2c(N)ncnc2n1[C@@H]1CCCN(C(=O)/C=C/CN(C)C2CC2)C1 [Compound 72, (R,E)-1-(3-(4-amino-6-methyl-5-(4-phenoxyphenyl)-7H-pyrrolo[2,3-d]pyrimidin-7-yl)piperidin-1-yl)-4-(cyclopropyl(methyl)amino)but-2-en-1-one] | < 0.1 |
| Cc1c(-c2ccc(Cl)cc2)c2c(N)ncnc2n1-c1cccc(N(C)C(=O)/C=C/CN(C)C2CC2)c1 [Compound 48, (E)-N-(3-(4-amino-5-(4-chlorophenyl)-6-methyl-7H-pyrrolo[2,3-d]pyrimidin-7-yl)phenyl)-4-(cyclopropyl(methyl)amino)-N-methylbut-2-enamide] | < 0.1 |
| Cc1c(-c2ccc(Oc3cccc(F)c3)cc2)c2c(N)ncnc2n1[C@@H]1CCCN(C(=O)/C=C/CN(C)C2CC2)C1 [Compound 76, (R,E)-1-(3-(4-amino-5-(4-(3-fluorophenoxyl)phenyl)-6-methyl-7H-pyrrolo[2,3-d]pyrimidin-7-yl)piperidin-1-yl)-4-(cyclopropyl(methyl)amino)but-2-en-1-one] | < 0.1 |
| CN(C/C=C/C(=O)N1CC[C@@H](n2c(C3CC3)c(-c3ccc(Oc4cccc(F)c4)cc3)c3c(N)ncnc32)C1)C1CC1 [Compound 99, (R,E)-1-(3-(4-amino-6-cyclopropyl-5-(4-(3-fluorophenoxy)phenyl)-7H-pyrrolo[2,3-d]pyrimidin-7-yl)pyrrolidin-1-yl)-4-(cyclopropyl(methyl)amino)but-2-en-1-one] | 0.1 to 1 |
| CN(C/C=C/C(=O)N1CC[C@@H](n2c(C#N)c(-c3ccc(Oc4ccccc4)cc3)c3c(N)ncnc32)C1)[C@H]1CCOC1 [Compound 106, 4-amino-7-((R)-1-((E)-4-(methyl((S)-tetrahydrofuran-3-yl)amino)but-2-enoyl)pyrrolidin-3-yl)-5-(4-phenoxyphenyl)-7H-pyrrolo[2,3-d]pyrimidine-6-carbonitrile] | < 0.1 |
| CN(C)C/C=C/C(=O)N1CC[C@@H](n2c(C#N)c(-c3ccc(Oc4ccccc4)cc3)c3c(N)ncnc32)C1 [Compound 102, (R,E)-4-amino-7-(1-(4-(dimethylamino)but-2-enoyl)pyrrolidin-3-yl)-5-(4-phenoxyphenyl)-7H-pyrrolo[2,3-d]pyrimidine-6-carbonitrile] | < 0.1 |
| COCCN(C)C/C=C/C(=O)N1CC[C@@H](n2c(C3CC3)c(-c3ccc(Oc4ccccc4)cc3)c3c(N)ncnc32)C1 [Compound 96, (R,E)-1-(3-(4-amino-6-cyclopropyl-5-(4-phenoxyphenyl)-7H-pyrrolo[2,3-d]pyrimidin-7-yl)pyrrolidin-1-yl)-4-((2-methoxyethyl)(methyl)amino)but-2-en-1-one] | < 0.1 |
| COCCN(C)C/C=C/C(=O)N1CC[C@@H](n2c(F)c(-c3ccc(Oc4ccccc4)cc3)c3c(N)ncnc32)C1 [Compound 49, (R,E)-1-(3-(4-amino-6-fluoro-5-(4-phenoxyphenyl)-7H-pyrrolo[2,3-d]pyrimidin-7-yl)pyrrolidin-1-yl)-4-((2-methoxyethyl)(methyl)amino)but-2-en-1-one] | < 0.1 |
| COCCN(C)C/C=C/C(=O)N1CC[C@@H](n2c(C)c(-c3ccc(Oc4ccccc4)cc3)c3c(N)ncnc32)C1 [Compound 61, (R,E)-1-(3-(4-amino-6-methyl-5-(4-phenoxyphenyl)-7H-pyrrolo[2,3-d]pyrimidin-7-yl)pyrrolidin-1-yl)-4-((2-methoxyethyl)(methyl)amino)but-2-en-1-one] | < 0.1 |
| CN(C/C=C/C(=O)N1CC[C@@H](n2c(C(N)=O)c(-c3ccc(Oc4ccccc4)cc3)c3c(N)ncnc32)C1)C1CC1 [Compound 126, (R,E)-4-amino-7-(1-(4-(cyclopropyl(methyl)amino)but-2-enoyl)pyrrolidin-3-yl)-5-(4-phenoxyphenyl)-7H-pyrrolo[2,3-d]pyrimidine-6-carboxamide] | < 0.1 |
| COCCN(C)C/C=C/C(=O)N1CC[C@@H](n2c(Cl)c(-c3ccc(Oc4ccccc4)cc3)c3c(N)ncnc32)C1 [Compound 55, (R,E)-1-(3-(4-amino-6-chloro-5-(4-phenoxyphenyl)-7H-pyrrolo[2,3-d]pyrimidin-7-yl)pyrrolidin-1-yl)-4-((2-methoxyethyl)(methyl)amino)but-2-en-1-one] | < 0.1 |
| CN(C/C=C/C(=O)N1CC[C@@H](n2c(C(F)F)c(-c3ccc(Oc4ccccc4)cc3)c3c(N)ncnc32)C1)C1CC1 [Compound 122, (R,E)-1-(3-(4-amino-6-(difluoromethyl)-5-(4-phenoxyphenyl)-7H-pyrrolo[2,3-d]pyrimidin-7-yl)pyrrolidin-1-yl)-4-(cyclopropyl(methyl)amino)but-2-en-1-one] | < 0.1 |
| CCc1c(-c2ccc(Oc3ccccc3)cc2)c2c(N)ncnc2n1[C@@H]1CCN(C(=O)/C=C/CN(C)C2CC2)C1 [Compound 115, (R,E)-1-(3-(4-amino-6-ethyl-5-(4-phenoxyphenyl)-7H-pyrrolo[2,3-d]pyrimidin-7-yl)pyrrolidin-1-yl)-4-(cyclopropyl(methyl)amino)but-2-en-1-one] | 0.1 to 1 |
